Test results from article PMC7589057, “Synthesis of Hantzsch Adducts as Cholinesterases and Calcium Flux inhibitors, Antioxidants and Neuroprotectives” (International Journal of Molecular Sciences, 2020).
“And” between values parts separate entries of the source, which are not always exact repeats. Identical values can stand only once.

How the values were obtained:
[1] = Oxygen radical absorbance capacity assay (ORAC-FL); settings: Trolox equivalents, mean (n = 3) ± SEM
Description: Briefly, fluorescein and antioxidant were incubated in a black 96-well microplate (Nunc) for 15 min at 37 °C. 2,2′-Azobis(amidinopropane) dihydrochloride was then added quickly using the built-in injector of Varioskan Flash plate reader (Thermo Scientific). […] All the reactions were made in triplicate and at least three different assays were performed for each sample [9, 30].

EeAChE = EeAChE (Electrophorus electricus, UniProt O42275); test: biochemical; type: biochemical; settings: for inhibition at 10 µM: read-out: AChE % inhibition at 10 μM (no IC50 given)
EeAChE, sequence (O42275 24-633): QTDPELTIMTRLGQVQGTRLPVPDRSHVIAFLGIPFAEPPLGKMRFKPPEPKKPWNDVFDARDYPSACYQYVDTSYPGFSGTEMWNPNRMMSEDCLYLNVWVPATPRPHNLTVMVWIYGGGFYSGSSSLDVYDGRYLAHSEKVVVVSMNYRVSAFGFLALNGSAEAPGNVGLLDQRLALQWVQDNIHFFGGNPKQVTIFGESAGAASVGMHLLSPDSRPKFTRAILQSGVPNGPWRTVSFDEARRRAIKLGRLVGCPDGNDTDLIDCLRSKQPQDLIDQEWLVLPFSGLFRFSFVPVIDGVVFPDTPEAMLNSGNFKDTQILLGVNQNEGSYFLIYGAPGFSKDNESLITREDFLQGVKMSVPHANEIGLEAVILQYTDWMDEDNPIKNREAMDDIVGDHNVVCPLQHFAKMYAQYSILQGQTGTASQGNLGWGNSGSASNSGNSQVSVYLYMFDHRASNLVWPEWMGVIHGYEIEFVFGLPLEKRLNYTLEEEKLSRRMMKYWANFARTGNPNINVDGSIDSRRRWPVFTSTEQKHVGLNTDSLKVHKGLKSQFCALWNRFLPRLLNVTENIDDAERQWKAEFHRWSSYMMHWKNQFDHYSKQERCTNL
Description: (§1) The evaluation of the activity of compounds against both EeAChE and eqBuChE was evaluated following the Ellman spectrophotometric method. Briefly, the reaction happens in a final volume of 3 mL of a 0.1 M phosphate-buffered solution at pH = 8.0, containing 5,5′-dithiobis-2-nitrobenzoic acid, EeAChE or eqBuChE, tested compound and bovine albumin serum phosphate-buffered (pH = 8) solution After this pre-incubation period, acetylthiocholine iodide or butyrylthiocholine iodide was added, allowing 15 min of additional incubation time.

Ca^+2 channel = test: Calcium channel blockade (FLIPR Calcium 6, KCl/CaCl2-stimulated SH-SY5Y cells); type: cell-based; settings: 10 μM; SH-SY5Y cells stimulated with KCl/CaCl2
Description: The calcium channel blockade assay was performed as described earlier. Briefly, the SH-SY5Y cells were seeded out in 96-well dark-walled plates at a density of 1 × 10^5 cells per well. After 24 h, the cells were loaded with FLIPR Calcium 6 indicator (Molecular Devices) for 2 h at 37 °C, according to the manufacturer’s protocol. Compounds were dissolved in an appropriate amount of DMSO at 10 mM concentration and diluted to a final concentration of 10 μM in Hanks′ Balanced Salt Solution (HBSS, Thermo Fisher Scientific) buffered with HEPES (Sigma-Aldrich) at pH = 7.4, and as such used were for treatment of indicator loaded cells (10 min at 37 °C). […] The baseline fluorescence was recorded for 5 s. Then, the cells were stimulated with KCl/CaCl2 solution (in HBSS, final concentration of KCl and CaCl2 was 90 and 5 mM, respectively) and the fluorescence was recorded for a further 30 s. Dimethyl sulfoxide 1% solution in HBSS was used as a vehicle control. Nimodipine (Cayman Chemical Company) was used as a reference inhibitor at 10 μM and compounds were assessed at the same final concentration in triplicate in three independent experiments. Fluorescent intensity values were normalized to the baseline.

eqBuChE = eqBuChE (Equus caballus, UniProt P81908); test: biochemical; settings: for inhibition at 10 µM: read-out: BuChE % inhibition at 10 μM (no IC50 given), 10 μM; for IC50: mean ± SEM, read-out: BuChE IC50
eqBuChE, sequence (P81908 whole entry): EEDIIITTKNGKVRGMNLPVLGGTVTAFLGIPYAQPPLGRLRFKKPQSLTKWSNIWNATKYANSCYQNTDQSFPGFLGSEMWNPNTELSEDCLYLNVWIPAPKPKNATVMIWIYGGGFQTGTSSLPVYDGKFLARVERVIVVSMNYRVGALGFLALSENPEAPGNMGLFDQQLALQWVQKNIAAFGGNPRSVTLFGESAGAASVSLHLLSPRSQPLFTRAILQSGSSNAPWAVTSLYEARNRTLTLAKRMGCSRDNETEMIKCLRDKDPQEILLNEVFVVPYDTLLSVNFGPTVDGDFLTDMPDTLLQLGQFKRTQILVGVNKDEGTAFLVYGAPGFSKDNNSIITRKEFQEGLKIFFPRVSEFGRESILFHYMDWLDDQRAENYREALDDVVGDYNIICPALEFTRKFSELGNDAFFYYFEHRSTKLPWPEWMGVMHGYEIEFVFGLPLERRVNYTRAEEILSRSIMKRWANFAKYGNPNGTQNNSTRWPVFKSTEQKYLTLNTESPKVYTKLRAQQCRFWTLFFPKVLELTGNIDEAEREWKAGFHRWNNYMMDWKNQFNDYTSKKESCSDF
Description: as §1

SH-SY5Y cells [2] = test: Neuroprotection against H2O2-induced cell death in SH-SY5Y cells (MTS); type: cell-based; settings: for H2O2 (%) neuroprotection: H2O2 200 µM
Description: (§2) The most balanced compounds were then submitted to evaluation of their neuroprotection activity. For this purpose, cytotoxicity was induced by H2O2, a well-known toxic responsible for the generation of ROS and by mitochondrial respiratory chain blockers oligomycin rotenone (O/R). Prior to the neuroprotective assay, the effect of the compounds on cell viability was evaluated at 1 and 10 µM, showing no cytotoxicity against SH-SY5Y cells.
(§3) SH-SY5Y cells were seeded in 96-well culture plates at a density of 12 × 10^4 cells per well in DMEM/F12 (1:1) medium supplemented with 10% fetal bovine serum, 1X non-essential amino acids, 100 units/mL penicillin and […] streptomycin (Dutscher, France). After 48 h of incubation, the cultures were treated with 100 µl of the test compounds or DMSO (0.1%) in the same medium. After 24 h, the cells were co-incubated with H2O2 (200 µM) or O/R (O at 10 µM/R at 30 µM) with or without the tested compounds at noncytotoxic concentrations for an additional period of 24 h. The percentage of cell viability was measured using CellTiter 96 AQueous Non-Radioactive Cell Proliferation (MTS) Assay (Promega, France).

SH-SY5Y cells [3] = test: Neuroprotection against oligomycin A/rotenone (O/R)-induced cell death in SH-SY5Y cells (MTS); type: cell-based; settings: for O/R (%) neuroprotection: O at 10 µM/R at 30 µM
Description: as §2, §3

SMILES	ORAC [1]	inhibition at 10 µM (EeAChE; EeAChE) [%]	(%) Ca Flux Inhibition (Ca^+2 channel) [%]	inhibition at 10 µM (eqBuChE) [%]	also measured
CCOC(=O)C1=C(C)NC(C)=C(C(=O)OCC)C1c1ccc(OCCCCCN2CCOCC2)cc1 [3a, Diethyl-2,6-dimethyl-4-(4-((5-morpholinopentyl)oxy)phenyl)-1,4-dihydropyridine-3,5-dicarboxylate]	1.31 ± 0.01 TE	< 50	18.58	< 50	
COC(=O)C1=C(C)NC(C)=C(C(=O)OC)C1c1ccc(OCCCCCN2CCOCC2)cc1 [3b, Dimethyl-2,6-dimethyl-4-(4-((5-morpholinopentyl)oxy)phenyl)-1,4-dihydropyridine-3,5-dicarboxylate]	2.59 TE and 2.59 ± 0.04 TE	< 50	31.89	< 50	
CCOC(=O)C1=C(C)NC(C)=C(C(=O)OCC)C1c1ccc(OCCCCCN(CC)CC)cc1 [3c, Diethyl-4-(4-((5-(diethylamino)pentyl)oxy)phenyl)-2,6-dimethyl-1,4-dihydropyridine-3,5-dicarboxylate]	2.64 TE and 2.64 ± 0.04 TE	< 50	58.21		neuroprotective effect against H2O2 (in words) (SH-SY5Y cells [2]): modest; H2O2 (%) neuroprotection (SH-SY5Y cells [2]; 0.3 µM): 12.37 ± 0.08%; H2O2 (%) neuroprotection (SH-SY5Y cells [2]; 1 µM): 24.17 ± 0.12%; neuroprotective effect against O/R (in words) (SH-SY5Y cells [3]): modest; O/R (%) neuroprotection (SH-SY5Y cells [3]; 0.3 µM): 22.27 ± 0.09%; O/R (%) neuroprotection (SH-SY5Y cells [3]; 1 µM): 25.87 ± 0.04%; IC50 (eqBuChE): 4.6 ± 0.1 µM
CCN(CC)CCCCCOc1ccc(C2C(C(=O)OC)=C(C)NC(C)=C2C(=O)OC)cc1 [3d, Dimethyl-4-(4-((5-(diethylamino)pentyl)oxy)phenyl)-2,6-dimethyl-1,4-dihydropyridine-3,5-dicarboxylate]	1.93 ± 0.68 TE	< 50	39.55	< 50	
CCOC(=O)C1=C(C)NC(C)=C(C(=O)OCC)C1c1ccc(OCCCCCN2CCN(C)CC2)cc1 [3e, Diethyl-2,6-dimethyl-4-(4-((5-(4-methylpiperazin-1-yl)pentyl)oxy)phenyl)-1,4-dihydropyridine-3,5-dicarboxylate]	1.78 ± 0.00 TE	< 50	40.51	< 50	
COC(=O)C1=C(C)NC(C)=C(C(=O)OC)C1c1ccc(OCCCCCN2CCN(C)CC2)cc1 [3f, Dimethyl-2,6-dimethyl-4-(4-((5-(4-methylpiperazin-1-yl)pentyl)oxy)phenyl)-1,4-dihydropyridine-3,5-dicarboxylate]	1.38 ± 0.02 TE	< 50	38.4	< 50	
CCOC(=O)C1=C(C)NC(C)=C(C(=O)OCC)C1c1ccc(OCCCCCN2CCC(Cc3ccccc3)CC2)cc1 [3g, Diethyl-4-(4-((5-(4-benzylpiperidin-1-yl)pentyl)oxy)phenyl)-2,6-dimethyl-1,4-dihydropyridine-3,5-dicarboxylate]	2.24 ± 0.04 TE	< 50	53.6	< 50	
COC(=O)C1=C(C)NC(C)=C(C(=O)OC)C1c1ccc(OCCCCCN2CCC(Cc3ccccc3)CC2)cc1 [3h, Dimethyl-4-(4-((5-(4-benzylpiperidin-1-yl)pentyl)oxy)phenyl)-2,6-dimethyl-1,4-dihydropyridine-3,5-dicarboxylate]	2.54 TE and 2.54 ± 0.04 TE		47.72		H2O2 (%) neuroprotection (SH-SY5Y cells [2]; 0.3 µM): 28% and 28.68% and 28.68 ± 0.02 %; H2O2 (%) neuroprotection (SH-SY5Y cells [2]; 1 µM): 23.32 ± 0.02 %; fold less active than tacrine (AChE IC50) (EeAChE; AChE IC50 vs tacrine): 60 fold; IC50 (EeAChE; EeAChE, mean ± SEM, read-out: AChE IC50): 1.8 ± 0.1 µM; O/R (%) neuroprotection (SH-SY5Y cells [3]; 0.3 µM): 38.29% and 38.29 ± 0.04 %; O/R (%) neuroprotection (SH-SY5Y cells [3]; 1 µM): 33.90% and 33.90 ± 0.05 %; IC50 (eqBuChE): 2 ± 0.1 µM
CCOC(=O)C1=C(C)NC(C)=C(C(=O)OCC)C1c1ccc(OCCCCCCN2CCOCC2)cc1 [3i, 3,5-Ethyl-2,6-dimethyl-4-(4-{[6-(morpholin-4-yl)hexyl]oxy}phenyl)-1,4-dihydropyridine-3,5-dicarboxylate]	1.22 ± 0.02 TE	< 50	47.55	< 50	
COC(=O)C1=C(C)NC(C)=C(C(=O)OC)C1c1ccc(OCCCCCCN2CCOCC2)cc1 [3j, 3,5-Dimethyl-2,6-dimethyl-4-(4-{[6-(morpholin-4-yl)hexyl]oxy}phenyl)-1,4-dihydropyridine-3,5-dicarboxylate]	0.99 ± 0.09 TE	< 50	52.57	< 50	
CCOC(=O)C1=C(C)NC(C)=C(C(=O)OCC)C1c1ccc(OCCCCCCN(CC)CC)cc1 [3k, 3,5-Diethyl-4-(4-{[6-(diethylamino)hexyl]oxy}phenyl)–2,6–dimethyl-1,4–dihydropyridine-3,5-dicarboxylate]	1.21 ± 0.12 TE	< 50	31.66		IC50 (eqBuChE): 9.6 ± 0.3 µM
CCN(CC)CCCCCCOc1ccc(C2C(C(=O)OC)=C(C)NC(C)=C2C(=O)OC)cc1 [3l, 3,5-Dimethyl-4-(4-{[6-(diethylamino)hexyl]oxy}phenyl)-2,6–dimethyl-1,4–dihydropyridine-3,5-dicarboxylate]	0.91 TE and 0.91 ± 0.01 TE	< 50	39.74		IC50 (eqBuChE): 8.7 ± 0.1 µM
CCOC(=O)C1=C(C)NC(C)=C(C(=O)OCC)C1c1ccc(OCCCCCCN2CCN(C)CC2)cc1 [3m, 3,5-Diethyl-2,6-dimethyl-4-(4-{[6-(4-methylpiperazin-1-yl)hexyl]oxy}phenyl)-1,4-dihydro-pyridine-3,5-dicarboxylate]	1.10 ± 0.08 TE	< 50	50.6		neuroprotective effect against H2O2 (in words) (SH-SY5Y cells [2]): modest; H2O2 (%) neuroprotection (SH-SY5Y cells [2]; 0.3 µM): 9.55 ± 0.00%; H2O2 (%) neuroprotection (SH-SY5Y cells [2]; 1 µM): 4.63 ± 0.02%; ORAC ([1]; listed as 2m): 1.10 TE; neuroprotective effect against O/R (in words) (SH-SY5Y cells [3]): modest; O/R (%) neuroprotection (SH-SY5Y cells [3]; 0.3 µM): 8.95 ± 0.00%; O/R (%) neuroprotection (SH-SY5Y cells [3]; 1 µM): 16.65 ± 0.00%; IC50 (eqBuChE): 5.5 ± 0.1 µM
COC(=O)C1=C(C)NC(C)=C(C(=O)OC)C1c1ccc(OCCCCCCN2CCN(C)CC2)cc1 [3n, 3,5-Dimethyl-2,6-dimethyl-4-(4-{[6-(4-methylpiperazin-1-yl)hexyl]oxy}phenyl)-1,4-dihydro-pyridine-3,5-dicarboxylate]	1.39 ± 0.12 TE	< 50	28.9	< 50	
CCOC(=O)C1=C(C)NC(C)=C(C(=O)OCC)C1c1ccc(OCCCCCCN2CCC(Cc3ccccc3)CC2)cc1 [3o]	1.36 ± 0.01 TE	< 50	80.19	< 50	
COC(=O)C1=C(C)NC(C)=C(C(=O)OC)C1c1ccc(OCCCCCCN2CCC(Cc3ccccc3)CC2)cc1 [3p, 3,5-Dimethyl-4-(4-{[6-(4-benzylpiperidin-1-yl)hexyl]oxy}phenyl)-2,6-dimethyl-1,4-dihydro-pyridine-3,5-dicarboxylate]	2.28 ± 0.01 TE	< 50	78.13	< 50	
COCCOC(=O)C1=C(C)NC(C)=C(C(=O)OC(C)C)C1c1cccc([N+](=O)[O-])c1 (centres unmarked) [NIM, nimodipine, reference compound]			47.91		
